For orientation: EC50 means the concentration that produces a half-maximal response.

Drawing on ChEMBL document CHEMBL5550108, “Exploiting high-energy hydration sites for the discovery of potent peptide aldehyde inhibitors of the SARS-CoV-2 main protease with cellular antiviral activity” (Bioorg Med Chem, 2024), this text covers EC50 and Selectivity ratio for 35 compounds.

One experiment has as its system SARS-CoV-2. Kind of experiment: Antiviral activity against SARS-CoV-2 USA-WA1/2020 infected in human HeLa cells harbouring ACE2 assessed as reduction in cytopathic effect pretreated with cells followed by viral infection and measured after 24 hrs by fluorescence based analysis. The conditions noted are these: Severe acute respiratory syndrome coronavirus 2, USA-WA1/2020, HeLa. It is filed as functional, organism-based. For orientation: Protection from cytopathic effect is a common read-out in antiviral testing.
As for `CC(C)(C(=O)N1C[C@H]2[C@@H]([C@H]1C(=O)N[C@H](C=O)C[C@@H]1CCNC1=O)C2(C)C)c1ccccc1`, the EC50 is 343 nM.
Regarding `Cc1cccc2cc(C(=O)N3C[C@H]4[C@@H]([C@H]3C(=O)N[C@H](C=O)C[C@@H]3CCNC3=O)C4(C)C)[nH]c12`, the EC50 amounted to 1300 nM.
For `Cc1cccc2[nH]c(C(=O)N3C[C@H]4[C@@H]([C@H]3C(=O)N[C@H](C=O)C[C@@H]3CCNC3=O)C4(C)C)cc12`, the EC50 amounted to 1400 nM.
Turning to `CC1(C)[C@@H]2[C@@H](C(=O)N[C@H](C=O)C[C@@H]3CCNC3=O)N(C(=O)C3(c4ccccc4)CC3)C[C@@H]21`, the EC50 is 196 nM.
With `CC1(C)[C@@H]2[C@@H](C(=O)N[C@H](C=O)C[C@@H]3CCNC3=O)N(C(=O)c3cc4c(C#N)cccc4[nH]3)C[C@@H]21`, the EC50 turned out to be 8500 nM.
Turning to `CC1(C)[C@@H]2[C@@H](C(=O)N[C@H](C=O)C[C@@H]3CCNC3=O)N(C(=O)C3(c4cccc(Cl)c4)CC3)C[C@@H]21`, the EC50 came to 90 nM.
As for `CC(C)(C)CC(=O)N1C[C@H]2[C@@H]([C@H]1C(=O)N[C@H](C=O)C[C@@H]1CCNC1=O)C2(C)C`, the EC50 stood at 1100 nM.
In the case of `CC1(C)[C@@H]2[C@@H](C(=O)N[C@H](C=O)C[C@@H]3CCNC3=O)N(C(=O)C3(c4ccccc4)CCCC3)C[C@@H]21`, the concentration for a half-maximal effect (EC50) came to 110 nM.
On to `CC1(C)[C@@H]2[C@@H](C(=O)N[C@H](C=O)C[C@@H]3CCNC3=O)N(C(=O)CC3CCCCC3)C[C@@H]21`, for which the concentration giving a half-maximal response (EC50) came out at 340 nM.
In the case of `CC1(C)[C@@H]2[C@@H](C(=O)N[C@H](C=O)C[C@@H]3CCNC3=O)N(C(=O)Cc3ccccc3)C[C@@H]21`, the concentration giving a half-maximal response (EC50) turned out to be 530 nM.
For `CC(C)c1ccc(F)c2[nH]c(C(=O)N3C[C@H]4[C@@H]([C@H]3C(=O)N[C@H](C=O)C[C@@H]3CCNC3=O)C4(C)C)cc12`, the 50% effective concentration (EC50) turned out to be 120 nM.
Still for that read-out and setting: next, `CC1(C)[C@@H]2[C@@H](C(=O)N[C@H](C=O)C[C@@H]3CCNC3=O)N(C(=O)c3cc4c(F)cccc4[nH]3)C[C@@H]21`: 1800 nM.
Take `CC1(C)[C@@H]2[C@@H](C(=O)N[C@H](C=O)C[C@@H]3CCNC3=O)N(C(=O)c3cc4ccc(F)cc4[nH]3)C[C@@H]21`: the EC50 was found to be 1800 nM.
`CC(C)Oc1cccc2[nH]c(C(=O)N3C[C@H]4[C@@H]([C@H]3C(=O)N[C@H](C=O)C[C@@H]3CCNC3=O)C4(C)C)cc12`: the EC50 came out at 250 nM.
The same measure, in the same setting: next, `CC(C)c1ccc(Cl)c2[nH]c(C(=O)N3C[C@H]4[C@@H]([C@H]3C(=O)N[C@H](C=O)C[C@@H]3CCNC3=O)C4(C)C)cc12`: 270 nM; `CC1(C)[C@@H]2[C@@H](C(=O)N[C@H](C=O)C[C@@H]3CCNC3=O)N(C(=O)c3cc4cccc(C#N)c4[nH]3)C[C@@H]21`: 410 nM; `O=C[C@H](C[C@@H]1CCNC1=O)NC(=O)[C@@H]1C[C@@H](C2CCCCC2)CN1C(=O)c1cc2ccccc2[nH]1`: 770 nM.
As for `CC1(C)[C@@H]2[C@@H](C(=O)N[C@H](C=O)C[C@@H]3CCNC3=O)N(C(=O)c3cc4cc(F)ccc4[nH]3)C[C@@H]21`, the half-maximal effective concentration (EC50) turned out to be 4000 nM.
For `CC1(C)[C@@H]2[C@@H](C(=O)N[C@H](C=O)C[C@@H]3CCNC3=O)N(C(=O)c3cc4cccc(F)c4[nH]3)C[C@@H]21`, the 50% effective concentration (EC50) came to 720 nM.
As to `Cc1cccc([C@@H](C)C(=O)N2C[C@H]3[C@@H]([C@H]2C(=O)N[C@H](C=O)C[C@@H]2CCNC2=O)C3(C)C)c1`, the EC50 worked out at 170 nM.
Still for that read-out and setting: next, `CCc1cccc2[nH]c(C(=O)N3C[C@H]4[C@@H]([C@H]3C(=O)N[C@H](C=O)C[C@@H]3CCNC3=O)C4(C)C)cc12`: 630 nM; `COc1cccc2cc(C(=O)N3C[C@H]4[C@@H]([C@H]3C(=O)N[C@H](C=O)C[C@@H]3CCNC3=O)C4(C)C)[nH]c12`: 1300 nM; `CC1(C)C[C@@H](C(=O)N[C@H](C=O)C[C@@H]2CCNC2=O)N(C(=O)c2cc3ccccc3[nH]2)C1`: 7100 nM.
Same read-out and setting: the value for `O=C[C@H](C[C@@H]1CCNC1=O)NC(=O)[C@@H]1CC2(CC2)CN1C(=O)c1cc2ccccc2[nH]1` was 9200 nM; that for `COc1cccc2[nH]c(C(=O)N3C[C@H]4[C@@H]([C@H]3C(=O)N[C@H](C=O)C[C@@H]3CCNC3=O)C4(C)C)cc12` was 8800 nM; that for `CC(C)(C)CCC(=O)N1C[C@H]2[C@@H]([C@H]1C(=O)N[C@H](C=O)C[C@@H]1CCNC1=O)C2(C)C` was 690 nM.
Take `CC1CCC(CC(=O)N2C[C@H]3[C@@H]([C@H]2C(=O)N[C@H](C=O)C[C@@H]2CCNC2=O)C3(C)C)CC1` (some centres undefined): the 50% effective concentration (EC50) was 160 nM.
For `CC1(C)[C@@H]2[C@@H](C(=O)N[C@H](C=O)C[C@@H]3CCNC3=O)N(C(=O)c3cc4cccc(Cl)c4[nH]3)C[C@@H]21`, the concentration for a half-maximal effect (EC50) amounted to 300 nM.
Take `CC(C)c1cccc2[nH]c(C(=O)N3C[C@H]4[C@@H]([C@H]3C(=O)N[C@H](C=O)C[C@@H]3CCNC3=O)C4(C)C)cc12`: the EC50 is 370 nM.
Turning to `CC1(C)[C@@H]2[C@@H](C(=O)N[C@H](C=O)C[C@@H]3CCNC3=O)N(C(=O)C3(O)CCCCC3)C[C@@H]21`, the EC50 was determined as 2200 nM.
Regarding `C[C@@H](C(=O)N1C[C@H]2[C@@H]([C@H]1C(=O)N[C@H](C=O)C[C@@H]1CCNC1=O)C2(C)C)c1ccccc1`, the EC50 was 300 nM.
Same read-out and setting: the value for `C[C@H](C(=O)N1C[C@H]2[C@@H]([C@H]1C(=O)N[C@H](C=O)C[C@@H]1CCNC1=O)C2(C)C)C1CCCCC1` was 470 nM.
`C[C@@H](C(=O)N1C[C@H]2[C@@H]([C@H]1C(=O)N[C@H](C=O)C[C@@H]1CCNC1=O)C2(C)C)C1CCCCC1`: the EC50 was 300 nM.
As for `CC1(C)[C@@H]2[C@@H](C(=O)N[C@H](C=O)C[C@@H]3CCNC3=O)N(C(=O)c3cc4cccc(C(F)(F)F)c4[nH]3)C[C@@H]21`, the EC50 turned out to be 240 nM.
The same measure, in the same setting: next, `CC1(C)[C@@H]2[C@@H](C(=O)N[C@H](C=O)C[C@@H]3CCNC3=O)N(C(=O)c3cc4ccccc4[nH]3)C[C@@H]21`: 2500 nM.

In a further experiment the test system is SARS-CoV-2. The experiment can be described thus: Selectivity ratio of EC50 for antiviral activity against SARS-CoV-2 USA-WA1/2020 infected in human HeLa cells harbouring ACE2 to IC50 for inhibition of C terminal 6 his tagged SARS-CoV-2 main protease expressed in Escherichia coli BL-21-Gold(DE3) cells. It counts as functional.
Settings: not given
With `O=C[C@H](C[C@@H]1CCNC1=O)NC(=O)[C@@H]1C[C@@H](C2CCCCC2)CN1C(=O)c1cc2ccccc2[nH]1`, the Selectivity ratio stood at 30.
For `CC1(C)C[C@@H](C(=O)N[C@H](C=O)C[C@@H]2CCNC2=O)N(C(=O)c2cc3ccccc3[nH]2)C1`, the Selectivity ratio turned out to be 30.
Consider `O=C[C@H](C[C@@H]1CCNC1=O)NC(=O)[C@@H]1CC2(CC2)CN1C(=O)c1cc2ccccc2[nH]1`, for which the Selectivity ratio came out at 30.
Same read-out and setting: the value for `CC1(C)[C@@H]2[C@@H](C(=O)N[C@H](C=O)C[C@@H]3CCNC3=O)N(C(=O)c3cc4ccccc4[nH]3)C[C@@H]21` was 30.
